Laboratory results: BindingDB's records for doi:10.7270/Q2K935WV (Nmmlsc, 2008)

Biological target: Isoform Bcl-X(L) of Bcl-2-like protein 1 (Bcl-xL) (Homo sapiens, UniProt Q07817)
Assay: Bcl-XL binding to Bim peptide disruption – biochemical, multiplexed, bead flow cytometry, human Bcl-XL, dose response (AID 1322)
Details: pH 7.4, 4 °C
[1] = inactive by the depositor's call

Chain of Isoform Bcl-X(L) of Bcl-2-like protein 1 (Bcl-xL) (Q07817 whole entry G70A, canonical isoform): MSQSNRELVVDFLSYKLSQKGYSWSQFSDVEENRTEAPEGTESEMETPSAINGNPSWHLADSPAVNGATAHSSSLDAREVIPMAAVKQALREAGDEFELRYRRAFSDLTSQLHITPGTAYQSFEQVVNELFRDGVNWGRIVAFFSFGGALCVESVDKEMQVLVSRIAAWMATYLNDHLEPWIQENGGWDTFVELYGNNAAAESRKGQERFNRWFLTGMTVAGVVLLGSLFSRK

EC50 [1]	EC50	Structure (SMILES)
0.41 µM	–	O=c1c2c(-c3ccccc3)csc2nc2c3ccccc3c(NCCN3CCOCC3)nn12 [SMR000352519]
–	26.4 µM	CCN1/C(=C/C(C)=C/c2sc3ccccc3[n+]2CC)Sc2ccccc21 [SMR000354813]
24 µM	–	Cc1ccnc(Nc2nc(-c3c(C)nc4sccn34)cs2)c1 [[4-(6-Methyl-imidazo[2,1-b]thiazol-5-yl)-thiazol-2-yl]-(4-methyl-pyridin-2-yl)-amine]
13.5 µM	–	CCOC(=O)c1nc(Nc2ccc(C(=O)OC)cc2)c2ccccc2n1 [ethyl 4-(4-methoxycarbonylanilino)quinazoline-2-carboxylate]
2.64 µM	–	CN(N=Cc1ccncc1)C1=NS(=O)(=O)c2ccccc21 [isonicotinaldehyde (1,1-dioxido-1,2-benzisothiazol-3-yl)(methyl)hydrazone]
